Earlier results, collected in patent US20200360276A1 (Aerovate Therapeutics, Inc., priority 2019, published 2020).

Columns and labels:
[1] = relative to imatinib parent compound
[2] = relative to imatinib parent compound; remark: listed apart in the source
[3] = tested on: platelet-derived growth factor receptor (PDGFR)
[4] = aqueous solution, dependence on pH

solubility [4]: increases as the pH drops
Compound: Cc1ccc(NC(=O)c2ccc(CN3CCNCC3)cc2)cc1Nc1nccc(-c2cccnc2)n1 [N-desmethyl imatinib]
potency [1]: same potency as the imatinib parent compound
half-life [2]: increased half-life relative to the parent imatinib compound
inhibition of PDGFR [3]: potent inhibitor
